Measured values reported in patent US12325692B2, “Uses of doxadiazines compounds” (HORITZONTS TECNOLOGICS HUNGARY KORLÁTOLT FELELOSSÉGU …, priority 2019, dated 2025).
pIC50: −log10 of the molar value.

Columns and labels:
NF-ηB [1] = assay: NF-ηB activity assay in THP-1 cells; format: cell-based; settings: Homo sapiens; THP-1 cell; read-out: inhibition of NF-ηB production IC50
Method: (§1) FIG. 5. Inhibition of NF-ηB production in THP-1 and NIH/3T3 cells.
(§2) NF-ηB activity assays. The NIH/3T3-KBF-Luc cells has been stably transfected with the plasmid KBF-Luc plasmid, which contains three copies of NF-ηB binding site (from major histocompatibility complex promoter), fused to a minimal simian virus 40 promoter driving the luciferase gene. Cells (1×10^4 for NIH/3T3-KBF-Luc) are seeded the day before the assay on 96-well plate. Then the cells are treated with the test substances for 15 min and then stimulated with 30 ng/mL TNF-α. After 6 h, the cells are washed twice with PBS and lysed in 50 μL lysis buffer containing 25 mM Tris-phosphate (pH 7.8), 8 mM MgCl2, 1 mM DTT, 1% Triton X-100, and 7% glycerol during 15 min at RT in a horizontal shaker. Luciferase activity is measured using a GloMax 96 microplate luminometer (Promega) following the instructions of the luciferase assay kit (Promega, Madison, WI, USA). The RLU is calculated and the results are expressed as percentage of inhibition of NF-ηB activity induced by TNF-α (100% activation). The experiments for each concentration of the test items will be done in triplicate wells.

NF-ηB [2] = assay: NF-ηB activity assay (KBF-Luc luciferase reporter) in NIH/3T3 cells; format: cell-based; settings: Mus musculus, NIH3T3; NIH/3T3 cell; read-out: inhibition of NF-ηB production IC50
Method: as §1, §2

TNF-α [3] = assay: TNF-α activity assay (ELISA) in THP-1 cells; format: cell-based; settings: THP-1 cell; read-out: inhibition of TNF-α production IC50
Method: (§3) FIG. 4. Inhibition of TNF-α production in THP-1 and NIH/3T3 cells.
(§4) TNF-α activity assays. The protein expression levels of TNF-α were measured by using an enzyme-linked immunosorbent assay (ELISA) kit according to the manufacturer's instructions (Diaclone). Absorbance was read at 450 nm on a spectrophotometric ELISA plate reader (Anthos 2020, Version 2.0.5, Biochrom Ltd., UK). The percentage of TNF-α inhibition was calculated from the ratio between the observed TNF-α amount secreted by treated cells (nM) and the baseline secretion of TNF-α (nM). Dexamethasone (Sigma-Aldrich; 50-02-2), was used as positive control (0.01 μM). Results were normalized to the solvent control DMSO (0.1%).

NIH/3T3 cells = assay: Cellular antioxidant activity assay (TBHP-induced ROS, DCFH-DA) in NIH/3T3 cells; format: cell-based; settings: Mus musculus, NIH3T3, NIH/3T3 cell, read-out: antioxidant activity IC50 (TBHP-induced intracellular ROS)
Method: (§5) FIG. 3. Inhibition of TBHP-induced ROS production in THP-1 and NIH-3T3 cells. ROS production was evaluated by fluorescent probe DCFH-DA assay.
(§6) Cellular antioxidant activity assays. The intracellular accumulation of ROS is detected by fluorimetry using […] (DCFH-DA). The THP-1 cell (1×10^5 cells/well) are cultured in a 96-well black plate in DMEM supplemented with 10% FBS; culture medium is renewed when the cells reached 80% confluence. For inhibition, the cells are pre-incubated with the test substances for 30 min and treated with 0.4 mM Terc-butyl-hydroperoxide (TBHP). After 3 h the cells are incubated with 10 μM DCFH-DA in the culture medium at 37° C. for 30 min.
(§7) The acetate groups on DCFH-DA are removed by an intracellular esterase, trapping the probe inside the THP-1 cell. Then, the cells are washed with PBS at 37° C. and the production of ROS measured by changes in fluorescence due to the intracellular accumulation of DCF caused by the oxidation of DCFH. Intracellular ROS, as indicated by DCF fluorescence is detected using the Incucyte FLR software; the data are analyzed by the total green object integrated intensity (GCU×μm^2×well) of the imaging system IncuCyte HD (Essen BioScience).
(§8) In both cases the intracellular levels of ROS induced by TBHP are reduced (FIG. 3).

tyrosinase = biological target: T1, tyrosinase (Mus musculus, UniProt P11344); assay: Tyrosinase activity assay in B16-F10 melanoma cells; format: cell-based; settings: 72 h treatment, read-out: inhibition of melanin synthesis (tyrosinase activity assay) IC50
T1 construct: To measure the tyrosinase activity of the cells, the B16-F10 cells treated for 3 days; endogenous in cells; host or cells: B16-F10 melanoma cells
T1 sequence (P11344 19-533): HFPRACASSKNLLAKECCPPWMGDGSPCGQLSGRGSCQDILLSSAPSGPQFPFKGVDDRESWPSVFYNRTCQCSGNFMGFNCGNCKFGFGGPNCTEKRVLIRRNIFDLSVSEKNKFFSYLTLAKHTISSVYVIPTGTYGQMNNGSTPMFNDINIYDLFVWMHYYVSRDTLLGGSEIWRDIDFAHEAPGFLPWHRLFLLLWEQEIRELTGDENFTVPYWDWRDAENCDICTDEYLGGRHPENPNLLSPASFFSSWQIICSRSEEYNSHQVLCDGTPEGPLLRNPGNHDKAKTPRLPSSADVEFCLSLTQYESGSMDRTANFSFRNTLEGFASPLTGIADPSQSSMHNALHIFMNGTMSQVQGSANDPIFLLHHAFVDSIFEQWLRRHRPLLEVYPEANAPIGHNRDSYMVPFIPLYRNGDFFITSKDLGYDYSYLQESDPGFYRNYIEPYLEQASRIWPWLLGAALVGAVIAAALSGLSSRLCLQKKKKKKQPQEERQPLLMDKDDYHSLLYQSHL
Method: FIG. 8. Effect of DOXA-1 and DOXA-2 on tyrosinase activity in B16-F10 melanoma cells. Tyrosinase activity assessment was performed as described in Methods. Briefly, cells were treated with the doses indicated of test substances or Kojic Acid as a positive control for 72 h. To determine the tyrosinase activity cells were lysed and the protein extracts were incubated with L-DOPA (a precursor of melanin) at 37° C. during 2 h and the activity was measured at 485 nm. Results are represented as percentage relative to untreated cells (control).
Tyrosinase activity assay. To measure the tyrosinase activity of the cells, the B16-F10 cells treated for 3 days with several doses of the compound is lysed by incubation at 4° C. for 30 min in lysis buffer (20 mM sodium phosphate, pH 6.8, 1% Triton X-100, 1 mM PMSF, 1 mM EDTA) containing protease inhibitors cocktail. The lysates are centrifuged at 15,000× g for 10 min to obtain the supernatant as the source of tyrosinase. The reaction mixture contained 20 mM phosphate buffer, pH 6.8, 1.25 mM L-DOPA (Sigma-Aldrich). After incubation at 37° C. for 2 h, dopachrome formation is monitored by measuring absorbance at a wavelength of 475 nm in a microplatereader (TECAN). Kojic acid 2 mM is used as a positive control.

THP-1 cells [4] = assay: Cellular antioxidant activity assay (TBHP-induced ROS, DCFH-DA) in THP-1 cells; format: cell-based; settings: Homo sapiens, THP-1 cell, 0.4 mM TBHP, read-out: antioxidant activity IC50 (TBHP-induced intracellular ROS)
Method: as §5, §6, §7, §8

THP-1 cells [5] = assay: Cytotoxic activity assay in THP-1 cells; format: cell-based; settings: 48 h, at the tested concentrations
Method: FIG. 1. Cytotoxic activities of the compound in THP-1 cells. The cells were treated with the test substance at the indicated concentrations for 48 h.
Cytotoxic activity assays. THP-1 cell was seeded in 96-well plates at a density of 5×10^4 cells/well and NIH/3T3 cells were seeded in 96-well plates at a density of 5×10^3 cells/well both incubated overnight at 37° C. in a humidified atmosphere of 5% CO2. Subsequently, cells were treated with test compounds at the indicated concentrations and DMSO as control for […]. The test compounds were dissolved in DMSO (stock solution) and diluted with medium to a final DMSO concentration of 0.2%. MTT solution (50 μL, 7 mg/mL in PBS) was added to each well and plates were incubated for an additional 2 h. Next, the medium was removed and 100 μL of DMSO was added to each well to dissolve the formazan crystals that formed. The absorbance was measured at 590 nm using a spectrophotometric ELISA plate reader (SpectraMax® i3, Molecular Devices, CA, USA). Samples were considered nontoxic for the THP-1 and NIH/3T3 cell line when cell viability was ≥90%.
To analyse the cytotoxic activities of the test compound, THP-1 cells were incubated with DOXA-1 and DOXA-2 for 48 h and cytotoxicity was measured by fluorescence microscopy using an Incuyte microscope.

HIF-1α = HIF-1α activity assay (NIH/3T3-EPO-Luc luciferase reporter, DFX-induced); format: cell-based; settings: 6 h, read-out: inhibition of DFX-induced activation of EPO-Luc (HIF-1α stabilization) IC50
Method: FIG. 7. Inhibitions the HIF-1α pathway. NIH/3T3-EPO-Luc cells (10×10^4 cells/mL) were preincubated with increasing concentrations of the compound or the hypoximimetic (Desferrioxamine) DFX for 6 h. Luciferase activity was measured in the cell lysates and results are represented as the percentage of inhibition considering 100% the value of DFX-induced HIF-1α pathway activation.
HIF-1α activity assay. The NIH/3T3-EPO-luc cells have been stably transfected with the plasmid Epo-Luc plasmid. The EPO-Hypoxia Response Element (HRE)-luciferase reporter plasmid contains three copies of the HRE consensus sequence from the promoter of the erythropoietin gene in the pGL3 vector. Cells (1×10^4 for NIH/3T3-EPO-luc) are seeded the day before the assay. The next day, the cells are stimulated either with the compound or Desferrioxamine (DFX) 150 μM as a positive control. After 6 hours of stimulation the cells are lysed in 25 mM Tris-phosphate pH 7.8, 8 mM MgCl2, 1 mM DTT, 1% Triton X-100, and 7% glycerol during 15 min at RT in a horizontal shaker. Luciferase activity is measured using a GloMax 96 microplate luminometer (Promega) following the instructions of the luciferase assay kit (Promega, Madison, WI, USA). The RLU is calculated and the results are expressed as percentage of inhibition induction/inhibition of EPO-luc activity. […]

TNF-α [6] = assay: TNF-α activity assay (ELISA) in NIH/3T3 cells; format: cell-based; settings: NIH/3T3 cell; read-out: inhibition of TNF-α production IC50
Method: as §3, §4

STAT3 = STAT3 activity assay (HeLa-STAT3-Luc luciferase reporter, IFNγ-induced); format: cell-based; settings: HeLa-STAT3-Luc cells, IFNγ 25 U/mL, 6 h; read-out: inhibition of IFNγ-induced STAT3 activation IC50
Method: FIG. 6. DOXA-1 and DOXA-2 inhibits IFNγ-induced STAT3 activation. HeLa-STAT3-Luc cells (15×10^3 cells/mL) were preincubated with increasing concentrations of the compound and treated with IFNγ (25 U/mL) for 6 h. Luciferase activity was measured in the cell lysates with the luciferase assay kit (Promega, USA) and using a GloMax 96 microplate luminometer
STAT3 activity assay. The HeLa-STAT3-luc cells have been stably transfected with the plasmid 4×M67 pTATA TK-Luc. Cells (15×10^3 cells/mL) are seeded 96-well plate the day before the assay. Then the cells are treated with the compound for 15 min and then stimulated with IFN-γ 25 IU/mL. After 6 h, the cells are washed twice with PBS and lysed in 50 μL lysis buffer containing 25 mM Tris-phosphate (pH 7.8), 8 mM MgCl2, 1 mM DTT, 1% Triton X-100, and 7% glycerol during 15 min at RT in a horizontal shaker. Luciferase activity was measured using GloMax 96 microplate luminometer (Promega) following the instructions of the luciferase assay kit (Promega, Madison, WI, USA). The RLU is calculated and the results are expressed as percentage of inhibition of STAT3 activity induced by IFN-γ (100% activation). The experiments for each concentration of the test items will be done in triplicate wells.

[7] = Total antioxidant activity assay (DPPH free radical, cell-free); format: biochemical; settings: Trolox 200 μM as positive control
Method: FIG. 2. Antioxidant activity of compound. The percentage of antioxidant activity of each extract was assessed by DPPH free radical assay and compared to the standard Trolox (92.08% of antioxidant activity).
Total antioxidant activity assay. […] DPPH (1,1-Diphenyl-2-picrylhydrazine) is a purple coloured stable free radical that is reduced to the yellow-coloured diphenylpicrylhydrazine. In a volume of 1 mL of methanol the test samples are mixed with DPPH 0.125 mM. Trolox (200 μM) is included as a positive control. After 30 min of incubation at room temperature in the dark the absorbance measurements are read at 517 nm using Thermo Scientific Genesys 10 uv scanning spectrophotometer. Lower absorbance of the reaction mixtures indicated higher free radical-scavenging activity. DPPH radical-scavenging activity is calculated according to the following formula: % Antioxidant activity=[(AC−AS)/AC]×100
Where Ac (control) is the absorbance of the control reaction (DPPH) and As (sample) is the absorbance of DPPH and sample.

Row | Compound | pIC50 (NF-ηB [1]) | pIC50 (NF-ηB [2]) | pIC50 (TNF-α [3]) | pIC50 (NIH/3T3 cells) | pIC50 (tyrosinase) | pIC50 (THP-1 cells [4]) | cytotoxicity against THP-1 cell (THP-1 cells [5]) | pIC50 (HIF-1α) | pIC50 (TNF-α [6]) | pIC50 (STAT3) | percentage of antioxidant activity (DPPH), standard [7] [%]
1 | CCCCCC1=NN(C(=O)CCOC(=O)CCC(=O)O)OC(CCCCC)C1 (stereo not drawn) [DOXA-1, Doxadiazine-1] | 7.20 | 7.17 | 7.49 | 5.48 | 7.74 | 8.09 | no cytotoxicity | 7.91 | 7.76 | 8.51 | 
2 | CCCCCC1=NN(C(=O)CCOC(C)=O)OC(CCCCC)C1 (stereo not drawn) [DOXA-2, Doxadiazine-2] | 8.29 | 8.62 | 8.46 | 8.65 | 8.06 | 8.46 | no cytotoxicity | 8.29 | 8.80 | 9.86 | 
3 | Cc1c(C)c2c(c(C)c1O)CCC(C)(C(=O)O)O2 (stereo not drawn) [Trolox, reference compound] |  |  |  |  |  |  |  |  |  |  | 92.08
